Test results from patent US20220026421A1, “METHOD, SURFACE, PARTICLE AND KIT FOR THE DETECTION OF ANALYTES IN SAMPLES” (TECHNISCHE UNIVERSITÄT DRESDEN, priority 2018, published 2022).

Target: EcEPSPS (UniProt P0A6D3+Q04571)
Details: FIG. 2; surfaces incubated with 10 mM solution, then glyphosate-coated particles; Ccg2 / Ccg2_GS_EcEPSPS coated glass
Description: The immobilised enzymes on the surface interact attractively with the particle-bound competitor, resulting in a characteristic contact area between the surface and the particle. The dissolved analyte competes with the competitor for the binding sites on the surface. […] The determination of the contact and particle radius to ascertain the adhesion energy takes place by means of reflection interference contrast microscopy.
The surfaces were then incubated with either 10 mM glyphosate or glufosinate solutions and then with linker-functionalised particles with or without glyphosate coating.
The surfaces were then incubated with glyphosate solutions of different concentrations and then with glyphosate-coated particles with ethylenediamine or pentaglycine linkers. […]
The recording of the radial intensity profiles of the HGS on the functionalised surface took place in the reflection interference contrast method by means of an inverted microscope system (Olympus IX 73) with a 60× immersion objective (Olympus UPIanSAPO 60× Oil Microscope Objective). From the recorded profiles, the contact radii a of particles and surface as well as the particle radii RHES could be automatically ascertained subsequently by means of software specially developed for this purpose. According to the Johnson-Kendall-Roberts model [2], these quantities are related to the adhesion energy Wadh in the following context: […]

In the case of O=C(O)CNCP(=O)(O)O [glyphosate, N-(phosphonomethyl)glycine], the “influence of soluble compound on the adhesion energy between glyphosate-coated particle and surface” value was “in the range of the negative control”.
